In general, EC50 refers to the concentration giving half of the maximal effect. Read a high EC50 as weaker potency. Broadly, the IC50 is the point on the concentration scale where inhibition reaches its midpoint.

These results are taken from PubChem BioAssay AID2117 (The Scripps Research Institute Molecular Screening Center, 2009).

Experiment in all cases: LXR, FXR and VP16 reporter activity, cell-based, luciferase reporter, ROR modulator project, late-stage follow-up (AID 2117)
On the technique in general: A reporter such as luciferase makes a cellular process visible.

For test [1], the target named is Bile acid receptor (Homo sapiens) (UniProt Q96RI1). Particulars: cell-based luciferase reporter panel, FXR, activation potency.
Bile acid receptor (Homo sapiens), sequence (Q96RI1 whole entry, looked up): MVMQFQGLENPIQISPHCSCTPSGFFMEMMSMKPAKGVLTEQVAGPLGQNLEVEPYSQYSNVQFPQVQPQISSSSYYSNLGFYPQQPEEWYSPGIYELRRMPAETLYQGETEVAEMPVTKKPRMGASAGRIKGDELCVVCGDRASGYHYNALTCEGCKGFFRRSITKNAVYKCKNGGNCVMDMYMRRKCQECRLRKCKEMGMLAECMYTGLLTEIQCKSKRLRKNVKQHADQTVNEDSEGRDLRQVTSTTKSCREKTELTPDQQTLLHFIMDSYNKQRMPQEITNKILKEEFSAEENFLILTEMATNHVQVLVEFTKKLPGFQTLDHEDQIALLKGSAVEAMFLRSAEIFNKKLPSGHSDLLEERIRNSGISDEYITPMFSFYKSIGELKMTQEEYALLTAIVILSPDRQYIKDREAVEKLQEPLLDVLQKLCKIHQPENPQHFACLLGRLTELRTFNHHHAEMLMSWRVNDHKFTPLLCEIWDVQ
Test [2] has as its target Oxysterols receptor LXR-beta (Homo sapiens) (UniProt P55055). To be noted: cell-based luciferase reporter panel, activation potency.
Test [3] deals with Glucose-6-phosphatase catalytic subunit 1 (Homo sapiens) (UniProt P35575). To be noted: cell-based luciferase reporter panel, G6Pase Promoter.
Glucose-6-phosphatase catalytic subunit 1 (Homo sapiens), sequence (P35575 whole entry, looked up): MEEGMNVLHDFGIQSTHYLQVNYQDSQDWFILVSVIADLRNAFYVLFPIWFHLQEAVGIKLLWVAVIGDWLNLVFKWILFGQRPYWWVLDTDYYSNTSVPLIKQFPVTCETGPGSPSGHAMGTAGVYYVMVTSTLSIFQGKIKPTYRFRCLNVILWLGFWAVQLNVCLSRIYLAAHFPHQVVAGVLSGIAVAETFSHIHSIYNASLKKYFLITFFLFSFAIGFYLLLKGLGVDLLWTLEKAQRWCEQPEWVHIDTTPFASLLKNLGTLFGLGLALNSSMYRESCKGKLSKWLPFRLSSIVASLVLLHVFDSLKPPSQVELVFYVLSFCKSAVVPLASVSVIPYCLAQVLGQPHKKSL

Oxysterols receptor LXR-beta (Homo sapiens), sequence (P55055 whole entry, looked up): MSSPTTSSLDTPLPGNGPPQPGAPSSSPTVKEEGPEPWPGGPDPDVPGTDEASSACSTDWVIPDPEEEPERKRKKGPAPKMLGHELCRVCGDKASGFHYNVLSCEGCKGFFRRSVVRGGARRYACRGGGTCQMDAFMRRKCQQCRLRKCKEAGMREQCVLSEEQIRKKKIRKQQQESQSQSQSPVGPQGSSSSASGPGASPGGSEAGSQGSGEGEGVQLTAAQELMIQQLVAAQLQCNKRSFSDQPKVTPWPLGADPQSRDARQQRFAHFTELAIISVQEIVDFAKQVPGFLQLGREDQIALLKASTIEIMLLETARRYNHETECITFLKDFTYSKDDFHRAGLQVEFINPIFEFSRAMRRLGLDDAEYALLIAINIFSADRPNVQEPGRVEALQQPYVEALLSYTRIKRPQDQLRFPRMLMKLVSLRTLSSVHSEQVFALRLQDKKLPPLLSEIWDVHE

With `O=S(=O)(Nc1ccc(C(O)(C(F)(F)F)C(F)(F)F)cc1)c1ccc(Cl)c2nonc12`, the results for the EC50 in test [1] and in test [2] were over 20 µM and 12 µM, respectively.

For the molecule `O=S(=O)(Nc1ccc(C(O)(C(F)(F)F)C(F)(F)F)cc1)c1cccc2cccnc12`, the EC50 was over 20 µM in test [1] and over 6 µM in test [2].

As to `CC(C)(C)c1ccc(S(=O)(=O)Nc2ccc(C(O)(C(F)(F)F)C(F)(F)F)cc2)cc1`, the EC50 in test [1] and in test [2] was over 20 µM throughout. The IC50 in test [3] was 8.4 µM.

For `O=S(=O)(Nc1ccc(C(O)(C(F)(F)F)C(F)(F)F)cc1)c1cccc2ccccc12`, the values for the EC50 in test [1] and in test [2] were 12 µM and 5.7 µM, respectively.

As for `COc1cccc(S(=O)(=O)Nc2ccc(C(O)(C(F)(F)F)C(F)(F)F)cc2)c1`, the EC50 was over 20 µM in test [1] and 18 µM in test [2].
